# Values of other authors, collected in patent US12156872B2, “Combination therapies for treating cancer” (TESARO, Inc., priority 2017, dated 2024).
# Like-named read-outs stand apart in the source and are kept apart here.
# Key:
# [1] = system: cancer cell lines silenced for BRCA-1 or BRCA-2, or carrying BRCA-1 or BRCA-2 mutations
# [2] = system: Ewing's sarcoma, ALL, NSCLC, SCLC cell lines and tumor cell lines with homozygous inactivation of the ATM gene
# PARP = details: hydrogen peroxide stimulated, various cell lines
# [3] = system: MDA-MB-436, CAPAN-1, GRANTA-519, OVCAR3, HT29, DLD-1, patient derived Ewing's sarcoma and TNBC xenograft models; details: xenograft models in mice
# TNBC = details: single agent, previously treated TNBC
# OC = details: single agent
# [4] = system: non-small-cell lung cancer, melanoma, and renal-cell cancer; details: Phase I clinical trial
molecule,measurement,setting,value
"NC(=O)c1cccc2cn(-c3ccc([C@@H]4CCCNC4)cc3)nc12 [niraparib, (3S)-3-[4-{7-(aminocarbonyl)-2H-indazol-2-yl}phenyl]piperidine]",activity on normal human cells,normal human cells,weak activity
same,cell cycle effect,[1],cell cycle arrest in G2/M followed by apoptosis
same,anti-proliferative activity,[1]; compared to wild type counterparts,selective anti-proliferative activity
same,cell cycle effect,[1]; listed as Niraparib,arrest in the G2/M phase of the cell cycle
same,cytotoxicity,[2],selectively cytotoxic
same,antitumor activity,[3],strong antitumor activity
"pembrolizumab: anti-PD-1 monoclonal antibody, immunoglobulin G4/kappa isotype humanized mAb (SEQ ID NO: 1 and 2)",objective response rate (ORR),TNBC,4.7%
"nivolumab: PD-1 antibody (Human IgG4), Bristol-Myers Squibb / ONO",objective response rate (ORR),OC,15%
same,clinical response,[4],complete or partial responses
